This passage reports CC50 and EC50 results from ChEMBL document CHEMBL3867463, “Cytotoxic lanostanes from fruits of Garcinia wallichii Choisy (Guttiferae)” (Bioorg Med Chem Lett, 2016).

Molecules are shown by their SMILES.

A short description of data set [1]: Cytotoxicity against human HEK293 cells by SRB method. In kind it is toxicity, cell-based. The note with it: read-out: ED50 (the source's name).
Data set [2] in a line: Cytotoxicity against human A549 cells by SRB method. The format is functional. The note with it: read-out: ED50 (the source's name).
Data set [3] can be described thus: Cytotoxicity against human KB cells by SRB method. In kind it is functional. The note with it: read-out: ED50 (the source's name).
A short description of data set [4]: Cytotoxicity against human MCF7 cells by SRB method. In kind it is functional. The note with it: read-out: ED50 (the source's name).
A short description of data set [5]: Cytotoxicity against mouse P388 cells by SRB method. The format is functional. The conditions noted are these: read-out: ED50 (the source's name).
The nature of data set [6]: Cytotoxicity against human HT-29 cells by SRB method. The conditions noted are these: read-out: ED50 (the source's name). The format is functional.
Data set [7] is described as follows: Cytotoxicity against human colon cancer cells by SRB method. In kind it is functional. The note with it: Cancer cell lines, read-out: ED50 (the source's name).
The nature of data set [8]: Cytotoxicity against rat ASK cells by SRB method. The format is functional. The note with it: read-out: ED50 (the source's name).

With `C/C(=C\C=C\[C@@H](C)[C@H]1CC[C@@]2(C)[C@@H]3CC[C@H]4C(C)(C)C(=O)CC[C@]4(C)[C@@]3(O)CC[C@]12C)C(=O)O`, in data set [1], the CC50 was greater than 50 µM. Also, the EC50 in data set [2], in data set [3], in data set [4], in data set [5], in data set [6] and in data set [7] was greater than 50 µM throughout. The EC50 in data set [8] was greater than 50 µM.
In the case of `COC(=O)/C(C)=C/C=C/[C@@H](C)[C@H]1CC[C@@]2(C)[C@@H]3CC[C@H]4C(C)(C)[C@]5(O)CC[C@]4(CO5)[C@@]3(O)CC[C@]12C`, the CC50 in data set [1] is greater than 50 µM. In addition, the EC50 in data set [2], in data set [3], in data set [4], in data set [5], in data set [6] and in data set [7] was greater than 50 µM each time. Besides, the EC50 in data set [8] was greater than 50 µM.
In the case of `C/C(=C\C=C\[C@@H](C)[C@H]1CC[C@@]2(C)[C@@H]3CC[C@H]4C(C)(C)[C@]5(O)CC[C@]4(CO5)[C@@]3(O)CC[C@]12C)C(=O)O`, the CC50 in data set [1] worked out at 6.89 µM. Also, the EC50 worked out at 5.69 µM in data set [2]; 4.79 µM in data set [3]; 6.19 µM in data set [4]; 3.91 µM in data set [5]; 5.39 µM in data set [6]; 4.73 µM in data set [7]. Also, the EC50 in data set [8] was 7.63 µM.
In the case of `C/C(=C\CC[C@@H](C)[C@H]1CC[C@@]2(C)[C@@H]3CC[C@H]4C(C)(C)[C@@H](O)CC[C@]4(C)[C@@]3(O)CC[C@]12C)C(=O)O`, the CC50 in data set [1] was greater than 50 µM. For the same compound, the EC50 in data set [2] is 35.1 µM; in data set [3], 29.9 µM; in data set [4] it was greater than 50 µM; in data set [5], 24.1 µM; in data set [6], 23.7 µM; in data set [7], greater than 50 µM. For the same compound, the EC50 in data set [8] is greater than 50 µM.
With `COC(=O)/C(C)=C/C=C/[C@@H](C)[C@H]1CC[C@@]2(C)[C@@H]3CC[C@H]4C(C)(C)C(=O)CC[C@]4(C)C3=CC[C@]12C`, in data set [1], the CC50 was greater than 50 µM. The EC50 in data set [2], in data set [3], in data set [4], in data set [5], in data set [6] and in data set [7] was greater than 50 µM each time. Also, the EC50 in data set [8] is greater than 50 µM.
`C/C(=C\CC[C@@H](C)[C@H]1CC[C@@]2(C)[C@@H]3CC[C@H]4C(C)(C)C(=O)CC[C@]4(C)[C@@]3(O)CC[C@]12C)C(=O)O`: the CC50 in data set [1] is greater than 50 µM. Also, the EC50 in data set [2], in data set [3], in data set [4], in data set [5], in data set [6] and in data set [7] was greater than 50 µM throughout. Also, the EC50 in data set [8] is greater than 50 µM.
As to `Cc1c2ccncc2c(C)c2c1[nH]c1ccccc12` [ELLIPTECINE], in data set [1], the CC50 turned out to be 2.03 µM. Further, the EC50 in data set [2] is 1.26 µM; in data set [3], 2.03 µM; in data set [4] it was 2.11 µM; in data set [5], 2.15 µM; in data set [6], 2.43 µM; in data set [7] it was 2.19 µM. Also, in data set [8], the EC50 stood at 2.31 µM.
